From patent publication US20240197596A1, “COMPOUNDS USEFUL AS HAIR DYES” (National University of Singapore, priority 2021, published 2024)
≈ marks a conversion by molar mass, not a printed value. Values belong to the molecule of their own block, whether it stands above or below them.

Key:
THP-1 cells [1] = experiment: MTT assay on THP-1 cells (CV75); assay type: cell-based, human
Procedure: THP-1 (human acute monocytic leukaemia cell line) cell suspension was adjusted to 1×10^5 cells per well and seeded in 96-well plates. The plate was incubated at 37° C. with 5% CO2. After 24 h, 10 mM stock solutions of N1-N13 were prepared in autoclaved milli-Q water. A series of concentrations diluted in media was prepared and added to the wells. Each concentration was performed in 6-replicates, and seeded wells with only media and no compound were used as controls while wells with only media were used as blanks. The plate was incubated for 24 h, after which 100 μL of MTT reagent was added and the plate was further incubated for 3 h before adding 100 μL of DMSO. Subsequently, the plate was shaken for 20 min, and then absorbance at 570 nm was determined using a Bio-Tek plate reader. Percentage cell viability was calculated and CV75 values were determined.

CD54 = experiment: h-CLAT assay, CD54 expression by flow cytometry; assay type: cell-based, human; conditions: for EC200 for CD54 (lowest concentration inducing % RFI of 200): THP-1 cells, 24 h; for RFI for CD54: at CV75, 24 h
Procedure: (§1) The assay was conducted as per the literature (Toxicol In Vitro, 2006, 20, 767-73). THP-1 cells were cultured in 24-well plates (1×10^6 cells/1 mL/well) with various concentrations of each chemical (N1-N13), +ve control (DNCB), −ve control for 24 h.
(§2) THP-1 cells were cultured in 24-well plates (1×10^6 cells/mL/well) and treated with recommended concentrations of each chemical (N1-N13), positive control (DNCB) or negative control (SLS) for 24 h. THP-1 cells were cultured and treated with 8 doses of N1-N13 based on the CV75 namely, 1.2×CV75, 1×CV75, 1/1.2×CV75, 1/1.2^2×CV75, 1/1.23×CV75, 1/1.24×CV75, 1/1.2^5×CV75 and 1/1.2^6×CV75. After 24 h, cells were transferred to 1.5 mL of microtubes and centrifuged at 450 g, 5 min, 4° C. Supernatant was discarded and cells were washed with 1 mL of FACS buffer (PBS+FBS+HEPES). The cells were centrifuged at 450 g, 5 min, 4° C. 50 μL of Fc block (0.01% of Globlins Cohn fraction II, III) was added and incubated for 10 min at 4° C. The cells were stained with 20 μL APC CD54 (Mouse IgG1, K, BD Biosciences, San Diego, CA, USA), 20 μL FITC CD86 (Mouse IgG1, K, BD Biosciences, San Diego, CA, USA) or their respective isotype controls and incubated for 15 min at room temperature in dark. After incubation, the antibodies were diluted with 200 μl FACS buffer. The cells were washed with 1 mL FACS buffer twice. Further, 200 μL Propidium iodide (PI, 0.625 μg/mL) prepared in FACS buffer was added before the flow cytometry analysis. Flow cytometric analysis was performed with BD LSR Fortessa™ (Becton Dickinson, San Jose, CA, USA) In total, 10,000 living cells were analysed, and data were processed using Flowjo software (v10.6, Ashland, OR, USA). The test concentration providing a cell viability of 75% (CV75) was derived from the dose response curve and was calculated by log-linear interpolation.
(§3) Geometric mean fluorescence intensity (MFI) was measured for CD54^+ and CD86^+ cells separately and percentage relative fluorescence intensity (% RFI), reflective of CD86 and CD54 relative expression was calculated as described below. RFI was not calculated if cell viability fell below 50%.
(§4) All chemicals were tested in three independent experiments. If in two of three independent experiments at any dose exceeded 150% RFI for CD86, or 200% RFI for CD54, the chemicals could be identified as a sensitizer. Otherwise it is identified as a non-sensitizer.

CD86 = experiment: h-CLAT assay, CD86 expression by flow cytometry; assay type: cell-based, human; conditions: for EC150 for CD86 (lowest concentration inducing % RFI of 150): THP-1 cells, 24 h; for RFI for CD86: at CV75, 24 h
Procedure: as §1, §2, §3, §4

[2] = Thermodynamic solubility assay (modified shake flask, LC-MS/MS); conditions: for solubility at 24 h: 25 °C, pH 7, water, thermodynamic from solid
Procedure: The aqueous solubilities (pH=7) of these compounds were measured using the modified shake flask method and LC-MS/MS. Each hair dye was added into a 2 mL glass vial containing Milli-Q water (1 mL) to form the precipitates at 25° C. Then the mixture was subjected to a solubility-equilibrium stage. The vials were shaken at 300 rpm at 25° C. for 24 h. The precipitate was separated by centrifugation at 23,000 g for 20 min. Subsequently, 0.5 mL of supernatant was transferred into a 1 mL Eppendorf tube, and it was centrifuged again as mentioned above. The supernatant was then used for LC-MS/MS analysis.
The mass spectrometric analysis was performed by use of a AB SCIEX QTRAP 5500 tandem mass spectrometry (MS/MS) system (AB SCIEX, Framingham, MA, USA) operating in triple quadrupole positive mode (ESI+) equipped with an AB Sciex Turbo Ion Spray interface. Acquisition and analysis of data were performed with Analyst software ver. 1.4.2 (Applied Biosystems) which performed all chromatographic peak integration. For each hair dye, a standard curve consisting of four concentrations was established.
Solvent A was composed of 0.1% [v/v] formic acid in Milli-Q water while solvent B was composed of 0.1% [v/v] formic acid in acetonitrile. A mobile phase gradient pumped at 0.6 mL/min was used to elute the hair dyes from the column. The column was equilibrated for 1 min resulting in a total run time of 5 min. The injection volume was 5.0 μL for all derivatives. To prevent compound accumulation on the needle, 50% methanol in ACN was used as needle wash for 30 s per sample.

THP-1 cells [3] = experiment: h-CLAT assay on THP-1 cells: markers against OECD cut-off, prediction, cell viability; assay type: cell-based, human; conditions: for CD54 and CD86 marker expression against OECD cut-off: 8 doses based on CV75, 24 h
Procedure: as §1, §2, §3, §4

HaCaT cells = conditions: data from J Hazard Mat., 2021, 402, 123712; cited from earlier work
[4] = in vivo; cited from earlier work
[5] = data from J Hazard Mat., 2021, 402, 123712, cited from earlier work
IL-8 = conditions: data from J Hazard Mat., 2021, 402, 123712 (FIG. 6); cited from earlier work
IL-1α = conditions: data from J Hazard Mat., 2021, 402, 123712 (FIG. 6); cited from earlier work
[6] = Milli-Q water, Water Solubility, library of old series (Table 4)
[7] = library of old series (Table 4)

solubility at 24 h [2, 6]: 5 µg/mL (≈ 13 µM)
Compound: CCCCCCNc1ccc(Nc2ccc(N)cc2)cc1OCCCCCC [PPD7, reference compound]

Water Solubility [2, 7]: Insoluble
Compound: Nc1ccc(Nc2ccc(Nc3ccc(Nc4ccc(N)cc4)cc3)cc2)cc1 [PPD8, reference compound]

Water Solubility [2, 7]: Insoluble
Compound: Cc1ccc(CNc2ccc(Nc3ccc(N)cc3)cc2)cc1 [PPD9, reference compound]

Water Solubility [2, 7]: Insoluble
Compound: Cc1ccc(CNc2ccc(Nc3ccc(Nc4ccc(N)cc4)cc3)cc2)cc1 [PPD10, reference compound]

Water Solubility [2, 7]: Insoluble
Compound: Nc1ccc(CNc2ccc(Nc3ccc(NCc4ccc([N+](=O)[O-])cc4)cc3)cc2)cc1 [PPD11, reference compound]

Water Solubility [2, 7]: Insoluble
Compound: COc1ccc(CNc2ccc(Nc3ccc(NCc4ccc(O)cc4)cc3)cc2)cc1 [PPD12, reference compound]

Water Solubility [2, 7]: Insoluble
Compound: Cc1ccc(CNc2ccc(Nc3ccc(NCc4ccc(C)cc4)cc3)cc2)cc1 [PPD13, reference compound]

Water Solubility [2, 7]: Insoluble
Compound: Oc1ccc(CNc2ccc(Nc3ccc(NCc4ccc(O)cc4)cc3)cc2)cc1 [PPD14, reference compound]

solubility at 24 h [2, 6]: 10 µg/mL (≈ 42.3 µM)
Compound: CCCCCCOC(=O)c1cc(N)ccc1N [PPD15, reference compound]

Water Solubility [2, 7]: Insoluble
Compound: CCCCCCNc1ccc(N)cc1OCCCCCC [PPD16, reference compound]

The remaining lines, values behind:

Compound: O=[N+]([O-])c1ccc(Cl)c([N+](=O)[O-])c1 [DNCB]
CV75 (concentration affording 75% cell viability), 1 × CV75 (THP-1 cells [1]; THP-1 cells, 24 h): 3.0 µg/mL
EC200 for CD54 (lowest concentration inducing % RFI of 200) (CD54): 1.5 µg/mL
RFI for CD54 (CD54): 450%
EC150 for CD86 (lowest concentration inducing % RFI of 150) (CD86): 1.4 µg/mL
RFI for CD86 (CD86): 326%

Compound: COCc1cc(N)ccc1N [ME-PPD, 2-(methoxymethyl)benzene-1,4-diamine]
solubility at 24 h [2, 6]: 78000 µg/mL (≈ 512000 µM)
CV75 (concentration affording 75% cell viability), 1 × CV75 (THP-1 cells [1]; THP-1 cells, 24 h): 144.6 µg/mL
EC200 for CD54 (lowest concentration inducing % RFI of 200) (CD54): 120.5 µg/mL
EC150 for CD86 (lowest concentration inducing % RFI of 150) (CD86): 117.9 µg/mL
CD54 and CD86 marker expression against OECD cut-off (THP-1 cells [3]): above the recommended threshold
IC50 (HaCaT cells): 334 µM
PPD-allergic individuals who develop an allergic reaction [4]: approximately 30%
Cumulative amount at 8th hour ([5]; 8 h): 0.519 μg/cm^2
Cumulative amount comparison of PPD vs derivatives ([5]; 8 h): 10.4
Permeated through skin into receptor [5]: 0.0044 % of applied compound dose
Recovered in donor compartment [5]: 89 % of applied compound dose
Recovered in skin [5]: 3.6 % of applied compound dose
Recovered in skin outside diffusion area [5]: 0.0042 % of applied compound dose
Recovered in skin swabs [5]: 0.69 % of applied compound dose
Recovered on parafilm and in washes [5]: 1.84 % of applied compound dose
Total recovery (mean percentage parent compound recovery) [5]: 95 ± 0.79%
release of IL-8 (IL-8): higher concentrations
release of IL-1α (IL-1α): higher concentrations

Compound: Nc1ccc(Nc2ccc(N)cc2)cc1 [PPD 1, reference compound]
solubility at 24 h [2, 6]: 500 µg/mL (≈ 2510 µM)

Compound: Nc1ccc(Nc2ccc(Nc3ccc(N)cc3)cc2)cc1 [PPD 2, reference compound]
solubility at 24 h [2, 6]: 100 µg/mL (≈ 344 µM)

Compound: CCCCC(CC)COc1cc(N)ccc1N (stereo not drawn) [PPD 3, reference compound]
solubility at 24 h [2, 6]: 80 µg/mL (≈ 338 µM)

Compound: CCCCCCOc1cc(N)ccc1N [PPD 4, reference compound]
solubility at 24 h [2, 6]: 80 µg/mL (≈ 384 µM)

Compound: CCCCCCOc1cc(Nc2ccc(N)cc2)ccc1N [PPD 5, reference compound]
Water Solubility [2, 7]: Insoluble

Compound: CCCCCCOC(=O)c1cc(Nc2ccc(N)cc2)ccc1N [PPD 6, reference compound]
solubility at 24 h [2, 6]: 1 µg/mL (≈ 3.05 µM)

Compound: Nc1ccc(N)cc1 [PPD, para-phenylenediamine]
solubility at 24 h [2]: 40000 µg/mL (≈ 370000 µM)
solubility in per cent ([2]; water): 4%
CV75 (concentration affording 75% cell viability), 1 × CV75 (THP-1 cells [1]; THP-1 cells, 24 h): 65.4 µg/mL
EC200 for CD54 (lowest concentration inducing % RFI of 200) (CD54): 35.0 µg/mL
RFI for CD54 (CD54): 270%
EC150 for CD86 (lowest concentration inducing % RFI of 150) (CD86): 39.4 µg/mL
RFI for CD86 (CD86): 210%
CD54 and CD86 marker expression against OECD cut-off (THP-1 cells [3]): above the recommended threshold
marker induction, times lower than DNCB (THP-1 cells [3]; human, 24 h): 1.6
IC50 (HaCaT cells): 23.4 µM
Cumulative amount at 8th hour ([5]; 8 h): 5.4 μg/cm^2
Permeated through skin into receptor [5]: 0.038 % of applied compound dose
Recovered in donor compartment [5]: 83 % of applied compound dose
Recovered in skin [5]: 4.3 % of applied compound dose
Recovered in skin outside diffusion area [5]: 0.0050 % of applied compound dose
Recovered in skin swabs [5]: 0.82 % of applied compound dose
Recovered on parafilm and in washes [5]: 2.19 % of applied compound dose
Total recovery (mean percentage parent compound recovery) [5]: 93 ± 0.52%
release of IL-8 (IL-8): higher concentrations
release of IL-1α (IL-1α): higher concentrations

Compound: Cc1cc(N)ccc1N [PTD, 2-methylbenzene-1,4-diamine]
solubility at 24 h [2]: 2500 µg/mL (≈ 20500 µM)
CV75 (concentration affording 75% cell viability), 1 × CV75 (THP-1 cells [1]; human): 43.4 µg/mL
EC200 for CD54 (lowest concentration inducing % RFI of 200) (CD54): 35.35 µg/mL
EC150 for CD86 (lowest concentration inducing % RFI of 150) (CD86): 34.3 µg/mL
CD54 and CD86 marker expression against OECD cut-off (THP-1 cells [3]): above the recommended threshold
IC50 (HaCaT cells): 73.1 µM
Recovered in donor compartment [5]: 95 % of applied compound dose
Recovered in skin [5]: 2.1 % of applied compound dose
Recovered in skin outside diffusion area [5]: 0.0077 % of applied compound dose
Recovered in skin swabs [5]: 0.48 % of applied compound dose
Recovered on parafilm and in washes [5]: 0.68 % of applied compound dose
Total recovery (mean percentage parent compound recovery) [5]: 99 ± 0.33%
release of IL-8 (IL-8): higher concentrations
release of IL-1α (IL-1α): higher concentrations

Compound: CCCCCCCCCCCCOS(=O)(=O)[O-].[Na+] [SLS, reference compound]
CV75 (concentration affording 75% cell viability), 1 × CV75 (THP-1 cells [1]; THP-1 cells, 24 h): 56.0 µg/mL
CD54 and CD86 marker expression against OECD cut-off (THP-1 cells [3]): did not express markers
